# From patent US20040010001A1, “Methods and compositions for modulating cell proliferation and cell death” (priority 1999, published 2004)
# Read-outs that look alike come from different tables or passages of the source.
# Assays:
# Format in all cases: cell-based
# [1] = system: rat lymph node metastasis cells, monolayers; assay: Drug effect in monolayers of rat lymph node metastasis cells (inhibition of bromodeoxyuridine incorporation); details: 96 h, read-out: Concentration producing 50% inhibition
# [2] = system: Human prostate PC3 tumor cells; assay: Drug treatment and extracellular bFGF (ELISA), LDH release, cell number; details: for Extracellular LDH, % of control / Extracellular bFGF, % of control / Extracellular concentration bFGF / bFGF:LDH ratio: 72 hours
# Human lung A459 = assay: FGF-induced resistance, inhibition of BrdU incorporation; details: read-out: Drug concentration needed to produce 50% inhibition
# Method in brief: (§1)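 Monolayers were pretreated for 96 h with human recombinant aFGF and/or bFGF in medium with 1% FBS (protein adjusted to 2 mg/ml, renewed every other day) and then drug-treated for 96 h. Antiproliferative effect was read as inhibition of BrdU incorporation.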
# Human breast MCF7 = assay: as above; details: read-out: Drug concentration needed to produce 50% inhibition
# Method in brief: as §1
# Rat prostate MAT-LyLu = assay: as above; details: read-out: Drug concentration needed to produce 50% inhibition
# Method in brief: as §1
# Human pharynx FaDu = assay: as above; details: read-out: Drug concentration needed to produce 50% inhibition
# Method in brief: as §1
# Human prostate PC3 = assay: as above; details: Homo sapiens, read-out: Drug concentration needed to produce 50% inhibition
# Method in brief: as §1
# Human colon HT-29 = assay: as above; details: read-out: Drug concentration needed to produce 50% inhibition
# Method in brief: as §1
# [3] = system: Human breast BC19 (subline of MCF7 transfected with mdr1); assay: as above; details: read-out: Drug concentration needed to produce 50% inhibition
# Method in brief: as §1
# [4] = system: rat primary tumors, histocultures; assay: Drug effect in histocultures of rat primary tumors (inhibition of 3H-thymidine incorporation); details: Histocultures, Primary, 96 hours, read-out: Concentration producing 50% inhibition
# [5] = 96 h, r-aFGF + r-bFGF 0.04 ± 1 ng/ml
# [6] = 96 h, r-aFGF + r-bFGF 0.08 ± 1 ng/ml
# [7] = 96 h, r-aFGF + r-bFGF 0.32 ± 1 ng/ml
# [8] = 96 h, r-aFGF + r-bFGF 0.64 ± 1 ng/ml
# [9] = 96 h, r-aFGF + r-bFGF 1 ± 1 ng/ml
smiles,measurement,setting,value
O=c1[nH]cc(F)c(=O)[nH]1 [5-Fluorouracil],IC50,[1]; Monolayers (passage 0),1900 ± 60 nM
same,IC50,[1]; Monolayers (passage 1),1290 ± 60 nM
same,IC50,[1]; Monolayers (passage 2),1090 ± 40 nM
same,IC50,[1]; Monolayers (passage 3),830 ± 100 nM
same,Remaining cell number at 72 hours (% of control),[2]; drug concentration 2000 NM,88%
same,Remaining cell number at 72 hours × 10^6,[2]; drug concentration 2000 NM,2.2 × 10^6
same,"Extracellular LDH, % of control",[2]; drug concentration 2000 NM,121 % of control
same,"Extracellular bFGF, % of control",[2]; drug concentration 2000 NM,139 % of control
same,Extracellular concentration bFGF,[2]; drug concentration 2000 NM,8.37 pg/mL
same,bFGF:LDH ratio,[2]; drug concentration 2000 NM,1.15
same,Remaining cell number at 72 hours (% of control),[2]; drug concentration 6000 NM,56%
same,Remaining cell number at 72 hours × 10^6,[2]; drug concentration 6000 NM,1.4 × 10^6
same,"Extracellular LDH, % of control",[2]; drug concentration 6000 NM,158 % of control
same,"Extracellular bFGF, % of control",[2]; drug concentration 6000 NM,189 % of control
same,Extracellular concentration bFGF,[2]; drug concentration 6000 NM,11.35 pg/mL
same,bFGF:LDH ratio,[2]; drug concentration 6000 NM,1.20
same,Remaining cell number at 72 hours (% of control),[2]; drug concentration 20000 NM,24%
same,Remaining cell number at 72 hours × 10^6,[2]; drug concentration 20000 NM,0.6 × 10^6
same,"Extracellular LDH, % of control",[2]; drug concentration 20000 NM,202 % of control
same,"Extracellular bFGF, % of control",[2]; drug concentration 20000 NM,296 % of control
same,Extracellular concentration bFGF,[2]; drug concentration 20000 NM,17.8 pg/mL
same,bFGF:LDH ratio,[2]; drug concentration 20000 NM,1.46
same,IC50,"Human lung A459; A459, 96 h, r-aFGF + r-bFGF 0 ng/ml",862 nM
same,IC50,"Human lung A459; A459, 96 h, r-aFGF + r-bFGF 0.04 ± 1 ng/ml",908 nM
same,IC50,"Human lung A459; A459, 96 h, r-aFGF + r-bFGF 0.08 ± 1 ng/ml",995 nM
same,IC50,"Human lung A459; A459, 96 h, r-aFGF + r-bFGF 0.16 ± 1 ng/ml",1010 nM
same,IC50,"Human lung A459; A459, 96 h, r-aFGF + r-bFGF 0.32 ± 1 ng/ml",1620 nM
same,IC50,"Human lung A459; A459, 96 h, r-aFGF + r-bFGF 0.64 ± 1 ng/ml",2090 nM
same,IC50,"Human lung A459; A459, 96 h, r-aFGF + r-bFGF 1 ± 1 ng/ml",3630 nM
same,IC50,"Human lung A459; A459, r-bFGF 0 ng/ml",870 nM
same,IC50,"Human lung A459; A459, r-bFGF 1 ng/ml",1010 nM
same,IC50,"Human lung A459; A459, r-bFGF 10 ng/ml",1380 nM
same,IC50,"Human lung A459; A459, r-bFGF 50 ng/ml",1710 nM
same,IC50,"Human breast MCF7; MCF7, r-bFGF 0 ng/ml",991 nM
same,IC50,"Human breast MCF7; MCF7, r-bFGF 0.01 ng/ml",1030 nM
same,IC50,"Human breast MCF7; MCF7, r-bFGF 0.1 ng/ml",1370 nM
same,IC50,"Human breast MCF7; MCF7, r-bFGF 1 ng/ml",1510 nM
same,IC50,Rat prostate MAT-LyLu; r-bFGF 0 ng/ml,746 nM
same,IC50,Rat prostate MAT-LyLu; r-bFGF 1 ng/ml,1050 nM
same,IC50,Rat prostate MAT-LyLu; r-bFGF 10 ng/ml,1990 nM
same,IC50,Rat prostate MAT-LyLu; r-bFGF 50 ng/ml,3250 nM
same,IC50,"Human pharynx FaDu; 96 h, r-aFGF + r-bFGF 0 ng/ml",5760 nM
same,IC50,Human pharynx FaDu; [5],5440 nM
same,IC50,Human pharynx FaDu; [6],5440 nM
same,IC50,"Human pharynx FaDu; 96 h, r-aFGF + r-bFGF 0.16 ± 1 ng/ml",5470 nM
same,IC50,Human pharynx FaDu; [7],5560 nM
same,IC50,Human pharynx FaDu; [8],9690 nM
same,IC50,Human pharynx FaDu; [9],15200 nM
same,IC50,Human pharynx FaDu; r-aFGF 0 ng/ml,5750 nM
same,IC50,Human pharynx FaDu; r-aFGF 1 ng/ml,5500 nM
same,IC50,Human pharynx FaDu; r-aFGF 10 ng/ml,5450 nM
same,IC50,Human pharynx FaDu; r-aFGF 50 ng/ml,5250 nM
same,IC50,Human pharynx FaDu; r-bFGF 0 ng/ml,4340 nM
same,IC50,Human pharynx FaDu; r-bFGF 1 ng/ml,4560 nM
same,IC50,Human pharynx FaDu; r-bFGF 10 ng/ml,4790 nM
same,IC50,Human pharynx FaDu; r-bFGF 50 ng/ml,4250 nM
same,IC50,Human prostate PC3; [5],761 nM
same,IC50,Human prostate PC3; [6],1150 nM
same,IC50,Human prostate PC3; [7],2540 nM
same,IC50,Human prostate PC3; [8],3770 nM
same,IC50,Human prostate PC3; [9],5740 nM
same,IC50,"Human prostate PC3; 96 h, r-aFGF + r-bFGF",1640 nM
same,IC50,Human prostate PC3; r-aFGF 0 ng/ml,810 nM
same,IC50,Human prostate PC3; r-aFGF 1 ng/ml,815 nM
same,IC50,Human prostate PC3; r-aFGF 10 ng/ml,695 nM
same,IC50,Human prostate PC3; r-aFGF 50 ng/ml,732 nM
same,IC50,Human prostate PC3; r-bFGF 0 ng/ml,741 nM
same,IC50,Human prostate PC3; r-bFGF 1 ng/ml,846 nM
same,IC50,Human prostate PC3; r-bFGF 10 ng/ml,2410 nM
same,IC50,Human prostate PC3; r-bFGF 50 ng/ml,4300 nM
same,IC50,"Human colon HT-29; HT-29, 96 h, r-aFGF + r-bFGF 0 ng/ml",1640 nM
same,IC50,"Human colon HT-29; HT-29, 96 h, r-aFGF + r-bFGF 0.04 ± 1 ng/ml",1760 nM
same,IC50,"Human colon HT-29; HT-29, 96 h, r-aFGF + r-bFGF 0.08 ± 1 ng/ml",1550 nM
same,IC50,"Human colon HT-29; HT-29, 96 h, r-aFGF + r-bFGF 0.16 ± 1 ng/ml",1610 nM
same,IC50,"Human colon HT-29; HT-29, 96 h, r-aFGF + r-bFGF 0.32 ± 1 ng/ml",2770 nM
same,IC50,"Human colon HT-29; HT-29, 96 h, r-aFGF + r-bFGF 0.64 ± 1 ng/ml",5210 nM
same,IC50,"Human colon HT-29; HT-29, 96 h, r-aFGF + r-bFGF 1 ± 1 ng/ml",7070 nM
same,IC50,"Human colon HT-29; HT-29, r-aFGF 0 ng/ml",1640 nM
same,IC50,"Human colon HT-29; HT-29, r-aFGF 1 ng/ml",1620 nM
same,IC50,"Human colon HT-29; HT-29, r-aFGF 10 ng/ml",1580 nM
same,IC50,"Human colon HT-29; HT-29, r-aFGF 50 ng/ml",1630 nM
same,IC50,"Human colon HT-29; HT-29, r-bFGF 0 ng/ml",2090 nM
same,IC50,"Human colon HT-29; HT-29, r-bFGF 1 ng/ml",2360 nM
same,IC50,"Human colon HT-29; HT-29, r-bFGF 10 ng/ml",2230 nM
same,IC50,"Human colon HT-29; HT-29, r-bFGF 50 ng/ml",2250 nM
same,IC50,[3]; r-bFGF 0 ng/ml,975 nM
same,IC50,[3]; r-bFGF 0.01 ng/ml,1070 nM
same,IC50,[3]; r-bFGF 0.1 ng/ml,1370 nM
same,IC50,[3]; r-bFGF 1 ng/ml,1510 nM
same,IC50,[4],33000 ± 12000 nM
